Source: US20090275653A1, “POLYMORPHIC FORMS OF LADOSTIGIL TARTRATE” (priority 2005, published 2009)

Experiments:
[1] = test system: animal models of Alzheimer's disease; conditions: background statement, literature; cited from earlier work
[2] = Effect of micronization, pressing and grinding (XRD); type: physicochemical; conditions: pressing 1 minute at 100 metric tons
Protocol: The effects of micronization, pressing (1 minute at 100 metric tons) and grinding were determined by XRD and the following results were obtained: […]

[3] = Water content (Karl Fischer) and loss on drying (TGA) of the form as obtained; type: physicochemical; conditions: for Water content: by weight
Protocol: (§1) TGA analysis was performed using a Mettler M3 meter. The weight of the samples was about 10 mg. The samples were scanned at a rate of 10° C./min from 25° C. to 200° C. The oven was constantly purged with nitrogen gas at a flow rate of 40 ml/min. Standard 70 μl alumina crucibles covered by lids with 1 hole were used.
(§2) The water content of ladostigil tartrate was measured by methods known in the art, such Karl Fischer analysis.

[4] = Hygroscopicity study: exposure to 0-100% relative humidity at room temperature (Karl Fischer, TGA, crystal form by XRD); type: physicochemical; parameters: TGA: unit not given here; conditions: for Water content by Karl Fisher: 1 week (7 days)
Source text: Form E was placed for 1 week under 0-100% relative humidity at room temperature. Table 1 summarizes the results:
Form F was placed for 14 days under 0-100% relative humidity at room temperature. Table 2 summarizes the results:
Form H was placed for 14 days under 0-100% relative humidity at room temperature. Table 3 summarizes the results:
Form J1 was placed for 9 days under 0-100% relative humidity at room temperature. Table 4 summarizes the results:
Table 5 summarizes the results:
X-Ray powder diffraction data were obtained by method known in the art using a SCINTAG powder X-Ray diffractometer model X'TRA equipped with a solid state detector. Copper radiation of 1.5418 Å was used. A round aluminum sample holder with round zero background quartz plate, with a cavity of 25(diameter)*0.5(depth) mm was used.
as §1, §2
Crystal form was determined after equilibration of ladostigil tartrate form A for 10 days at various relative humidities at room temperature.
Form A1 was exposed at various humidity conditions at room temperature for 13 days.
Ladostigil tartrate form A1 was exposed to various humidity conditions at room temperature for 14 days. TGA was performed, and the crystal form was analyzed.
A mixture of ladostigil tartrate form A1 and E, containing primarily form A1, was exposed at various humidity conditions at room temperature for 14 days.
Form E was placed for 7 days under 0-100% relative humidity at room temperature. Table 12 summarizes the results:
Form F was placed for 14 days under 0-100% relative humidity at room temperature. Table 14 summarizes the results:
Ladostigil tartrate Form H was exposed for 14 days under 0-100% relative humidity at room temperature. Table 15 summarizes the results:
Crystal ladostigil tartrate Form J1 was placed for 9 days under 0-100% relative humidity at room temperature.

[5] = Effect of freezing (XRD); type: physicochemical; conditions: freezer at about −25° C. for 3 months
Protocol: The effects of freezing was determined by XRD and the following results were obtained:
Form A1 was kept in a freezer at about −25° C. for 3 months. Form A1 transformed to Form A in freezer.

[6] = Transformation of crystal form upon standing; type: physicochemical; conditions: upon standing (a few hours)
Protocol: The wet material was determined to be polymorph C. Some of the samples contained polymorph C with low crystallinity. The wet material was dried at 55° C. under vacuum for 17 hours, giving polymorph E. The wet polymorph with low crystallinity was transformed to polymorph E with low crystallinity upon drying under the same conditions. Both polymorph E and polymorph E with low crystallinity were transformed to form A upon standing.
The wet material was dried at 80° C. under vacuum for 17 hours and polymorph E was formed.

[7] = 100% RH, 13 days, room temperature
[8] = 100% RH, 14 days, room temperature

C#CCN[C@@H]1CCc2ccc(OC(=O)N(C)CC)cc21 [Ladostigil, Ethyl-methyl-carbamic acid (R)-3-prop-2-ynylamino-indan-5-yl ester]
Efficacy in animal models of Alzheimer's disease [1]: effective

carbamic acid, ethylmethyl-, (3R)-2,3-dihydro-3-(2-propynylamino)-1H-inden-5-yl ester, (2R,3R)-2,3-dihydroxybutanedioate (2:1) [Form A1, reference compound]
Crystallinity after pressing [2]: lose some extent of crystallinity | Weight loss / loss on drying by TGA [3]: 0.3% | Water content [3]: about 0.3% | KF (Karl Fischer analysis) ([4]; 0% RH, 13 days, room temperature): 0.3% | KF (Karl Fischer analysis) ([4]; 20% RH, 13 days, room temperature): 0.3% | KF (Karl Fischer analysis) ([4]; 40% RH, 13 days, room temperature): 0.3% | KF (Karl Fischer analysis) ([4]; 60% RH, 13 days, room temperature): 0.3% | TGA ([4]; 60% RH, 14 days, room temperature): 0.2 | KF (Karl Fischer analysis) ([4]; 80% RH, 13 days, room temperature): 0.3% | TGA ([4]; 80% RH, 14 days, room temperature): 0.1 | KF (Karl Fischer analysis) [4, 7]: 0.5% | Resulting form [4, 7]: partially transforms to form A | Crystal Form (resulting form) [4, 8]: mixture of Form A and A1 | TGA [4, 8]: 0.1 | Hygroscopicity ([4]; conclusion in words): neither Form A nor Form A1 is hygroscopic | Crystal form upon exposure to high relative humidity ([4]; high relative humidity, in words): transforms to form A | Crystal form after freezing [5]: Form A

carbamic acid, ethylmethyl-, (3R)-2,3-dihydro-3-(2-propynylamino)-1H-inden-5-yl ester, (2R,3R)-2,3-dihydroxybutanedioate (2:1) [Form E]
Weight loss / loss on drying by TGA [3]: 0.7-2% | Water content [3]: 0.7-2% | Water content by Karl Fisher ([4]; 0% RH, room temperature): 0.7% | Relative humidity range in which the form is stable ([4]; 1 week, room temperature): 0-60 % RH | Water content by Karl Fisher ([4]; 20% RH, room temperature): 0.7% | Water content by Karl Fisher ([4]; 40% RH, room temperature): 1.5% | Water content by Karl Fisher ([4]; 60% RH, room temperature): 1.8% | Water content by Karl Fisher ([4]; 80% RH, room temperature): 0.5% | Water content by Karl Fisher ([4]; 100% RH, room temperature): 0.5% | Crystal form after standing ([6]; listed as Polymorph E): mixture of polymorphs A and A1 | Crystal form after standing ([6]; listed as polymorph E): form A
